Assay: Moisture-sorption isotherm (VTI SGA-100 Symmetric Vapor Analyzer)
Type: physicochemical
Settings: range from about 25% RH to about 75% RH at 25° C.; FIG. 8
Experimental: 10. Moisture-sorption isotherms were collected in a VTI SGA-100 Symmetric Vapor Analyzer using approximately 10 mg of sample. The sample was dried at 60° C. until the loss rate of 0.0005 wt %/min was obtained for 10 minutes. The sample was tested at 25° C. and 3 or 4, 5, 15, 25, 35, 45, 50, 65, 75, 85, and 95% RH. Equilibration at each RH was reached when the rate of 0.0003 wt %/min for 35 minutes was achieved or a maximum of 600 minutes.

weight gain / weight water uptake (moisture-sorption isotherm): about 0.1%
Compound: O=C(C(=O)N1CCN(C(=O)c2ccccc2)CC1)c1c[nH]c2c(-n3ccnn3)ncc(F)c12

Reference: patent US7601715B2, “Process for preparing triazole substituted azaindoleoxoacetic piperazine derivatives and novel salt forms produced therein” (Bristol-Myers Squibb Company, priority 2005, dated 2009)
